# Data as given in PMC3804614, “Transient Receptor Potential Channels Encode Volatile Chemicals Sensed by Rat Trigeminal Ganglion Neurons” (PLoS ONE, 2013).
# Read-outs that look alike come from different tables or passages of the source.
# Columns and labels:
# Format in all cases: cell-based
# [1] = target: T1, rTRPV1 (Rattus norvegicus, UniProt O35433); assay: whole-cell voltage clamp, CHO cells expressing rTRPV1; block of odorant-evoked currents
# T1 construct: gene Trpv1
# [2] = target: T2, rTRPA1 (Rattus norvegicus, UniProt Q6RI86); assay: whole-cell voltage clamp, CHO cells expressing rTRPA1; block of odorant-evoked currents
# T2 construct: gene Trpa1
# [3] = target: rTASK1 (K2P3, KCNK3) (Rattus norvegicus, UniProt O54912); assay: two-electrode voltage clamp, Xenopus oocytes expressing rTASK1, dose-response
# Chain of rTASK1 (K2P3, KCNK3) (O54912 whole entry): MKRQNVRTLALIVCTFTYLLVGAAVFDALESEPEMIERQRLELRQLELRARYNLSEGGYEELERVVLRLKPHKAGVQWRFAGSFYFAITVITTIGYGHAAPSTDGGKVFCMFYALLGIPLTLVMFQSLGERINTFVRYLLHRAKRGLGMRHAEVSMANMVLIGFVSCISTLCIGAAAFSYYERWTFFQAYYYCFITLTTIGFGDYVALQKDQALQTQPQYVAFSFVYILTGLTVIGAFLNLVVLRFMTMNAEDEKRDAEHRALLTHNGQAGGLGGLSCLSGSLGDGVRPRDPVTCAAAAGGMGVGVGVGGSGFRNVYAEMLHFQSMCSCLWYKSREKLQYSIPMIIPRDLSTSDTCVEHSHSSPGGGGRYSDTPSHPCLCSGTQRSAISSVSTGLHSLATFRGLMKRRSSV
# T1 sequence (O35433 whole entry): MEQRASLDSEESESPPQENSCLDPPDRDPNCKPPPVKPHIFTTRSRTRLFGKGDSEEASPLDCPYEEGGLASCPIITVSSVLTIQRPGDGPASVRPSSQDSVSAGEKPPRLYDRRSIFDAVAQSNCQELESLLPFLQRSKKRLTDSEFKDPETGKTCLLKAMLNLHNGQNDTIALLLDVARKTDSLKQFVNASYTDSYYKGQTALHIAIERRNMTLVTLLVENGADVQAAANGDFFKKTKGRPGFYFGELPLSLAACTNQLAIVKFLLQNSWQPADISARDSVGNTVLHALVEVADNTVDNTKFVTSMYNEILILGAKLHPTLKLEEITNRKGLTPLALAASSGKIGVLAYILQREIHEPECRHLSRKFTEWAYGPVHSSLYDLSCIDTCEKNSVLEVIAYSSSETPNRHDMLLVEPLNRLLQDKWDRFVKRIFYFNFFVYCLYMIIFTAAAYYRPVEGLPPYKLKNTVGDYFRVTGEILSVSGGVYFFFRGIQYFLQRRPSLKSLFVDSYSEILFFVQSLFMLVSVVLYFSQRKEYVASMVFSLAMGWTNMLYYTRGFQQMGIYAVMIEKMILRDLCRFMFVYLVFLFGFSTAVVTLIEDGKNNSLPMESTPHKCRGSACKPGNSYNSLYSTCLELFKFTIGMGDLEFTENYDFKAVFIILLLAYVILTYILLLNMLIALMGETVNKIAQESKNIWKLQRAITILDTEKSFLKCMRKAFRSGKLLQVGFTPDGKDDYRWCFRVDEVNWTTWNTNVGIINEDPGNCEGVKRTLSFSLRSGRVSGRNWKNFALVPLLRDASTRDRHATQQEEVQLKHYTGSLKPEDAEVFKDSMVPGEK
# T2 sequence (Q6RI86 whole entry): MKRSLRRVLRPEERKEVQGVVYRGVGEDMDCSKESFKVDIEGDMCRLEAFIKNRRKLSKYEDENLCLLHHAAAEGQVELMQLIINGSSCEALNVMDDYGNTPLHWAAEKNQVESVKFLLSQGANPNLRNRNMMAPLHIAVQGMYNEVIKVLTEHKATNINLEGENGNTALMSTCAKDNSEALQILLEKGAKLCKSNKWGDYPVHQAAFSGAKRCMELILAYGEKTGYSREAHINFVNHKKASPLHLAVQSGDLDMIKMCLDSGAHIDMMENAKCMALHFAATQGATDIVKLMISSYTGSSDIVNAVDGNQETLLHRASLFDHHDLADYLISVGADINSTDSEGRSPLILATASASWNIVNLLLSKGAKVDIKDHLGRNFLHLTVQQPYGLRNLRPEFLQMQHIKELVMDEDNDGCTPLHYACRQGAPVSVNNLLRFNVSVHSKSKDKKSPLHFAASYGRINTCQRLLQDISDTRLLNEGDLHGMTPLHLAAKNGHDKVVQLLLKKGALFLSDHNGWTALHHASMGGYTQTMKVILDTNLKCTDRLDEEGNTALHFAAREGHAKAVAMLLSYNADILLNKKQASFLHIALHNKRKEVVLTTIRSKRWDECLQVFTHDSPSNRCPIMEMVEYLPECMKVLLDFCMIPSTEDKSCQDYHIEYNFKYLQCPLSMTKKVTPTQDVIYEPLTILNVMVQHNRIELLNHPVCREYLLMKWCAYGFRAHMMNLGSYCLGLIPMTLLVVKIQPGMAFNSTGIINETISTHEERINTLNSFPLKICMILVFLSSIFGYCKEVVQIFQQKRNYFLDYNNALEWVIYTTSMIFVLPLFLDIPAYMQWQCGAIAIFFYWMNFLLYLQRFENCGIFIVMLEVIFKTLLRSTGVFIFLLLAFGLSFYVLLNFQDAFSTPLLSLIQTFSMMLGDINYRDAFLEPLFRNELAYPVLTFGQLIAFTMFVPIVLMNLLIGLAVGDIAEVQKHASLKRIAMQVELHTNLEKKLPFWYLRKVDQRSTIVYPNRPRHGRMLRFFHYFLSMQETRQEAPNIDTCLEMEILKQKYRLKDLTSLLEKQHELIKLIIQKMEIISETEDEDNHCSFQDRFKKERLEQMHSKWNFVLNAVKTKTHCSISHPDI
structure (smiles),measurement,setting,value
"Oc1cc2c(cc1O)CN(C(=S)NCCc1ccc(Cl)cc1)CCC2 [CPZ, capsazepine]","whole-cell voltage clamp, CHO cells expressing rTRPV1; block of odorant-evoked c",[1],Co-administration of CPZ nearly completely inhibited all odorant-evoked outward currents
"CC(C)c1ccc(NC(=O)Cn2cnc3c2c(=O)n(C)c(=O)n3C)cc1 [HC, HC-030031]","whole-cell voltage clamp, CHO cells expressing rTRPA1; block of odorant-evoked c",[2],Co-administration of HC nearly completely inhibited vanillin- and HTPA-evoked outward and inward currents
CC(C)=CCC/C(C)=C/CO [geraniol],IC50,[3]; read-out: IC50,580 ± 90 µM
CC(=O)CCc1ccc2c(c1)OCO2 [heliotropyl acetone],IC50,[3],890 ± 120 µM
